From patent US8921360B2, “Heterobicycle-substituted azolyl benzene fungicides” (priority 2009, dated 2014)

What was measured:
Assay type in all cases: in vivo
[1] = system: Erysiphe graminis f. sp. tritici; assay: Test A: wheat powdery mildew, preventive spray on wheat seedlings; conditions: Blumeria graminis, 192 h, wheat seedlings sprayed to run-off, inoculated next day, rated after 8 days, 100 = 100% disease control, 0 = no control, read-out: Percentage Disease Control Test A
From the text: General protocol for preparing test suspensions for Tests A-G: the test compounds were first dissolved in acetone in an amount equal to 11% of the final volume and then suspended at the desired concentration (in ppm) in acetone and purified water (50/50 mix by volume) containing 250 ppm of the surfactant Trem® 014 (polyhydric alcohol esters). The resulting test suspensions were then used in Tests A-G. Spraying a 200 ppm test suspension to the point of run-off on the test plants was the equivalent of a rate of 800 g/ha. The test suspension was sprayed to the point of run-off on wheat seedlings. The following day the seedlings were inoculated with a spore dust of Erysiphe graminis f. sp. tritici, (the causal agent of wheat powdery mildew) and incubated in a growth chamber at 20° C. for 8 days, after which time disease ratings were visually made. Results for Tests A-G are given in Table A. In the Table, a rating of 100 indicates 100% disease control and a rating of 0 indicates no disease control (relative to the controls). A dash (-) indicates no test results. All results are for 200 ppm except where followed by an “*”, which indicates 40 ppm.

[2] = system: Puccinia recondita f sp. tritici; assay: Test B: wheat leaf rust, preventive spray on wheat seedlings; conditions: Puccinia recondita, 192 h, wheat seedlings sprayed to run-off, inoculated next day, rated after 24 h + 7 days, read-out: Percentage Disease Control Test B
From the text: General protocol for preparing test suspensions for Tests A-G: the test compounds were first dissolved in acetone in an amount equal to 11% of the final volume and then suspended at the desired concentration (in ppm) in acetone and purified water (50/50 mix by volume) containing 250 ppm of the surfactant Trem® 014 (polyhydric alcohol esters). The resulting test suspensions were then used in Tests A-G. Spraying a 200 ppm test suspension to the point of run-off on the test plants was the equivalent of a rate of 800 g/ha. The test suspension was sprayed to the point of run-off on wheat seedlings. The following day the seedlings were inoculated with a spore suspension of Puccinia recondita f sp. tritici (the causal agent of wheat leaf rust) and incubated in a saturated atmosphere at 20° C. for 24 h, and then moved to a growth chamber at 20° C. for 7 days, after which time disease ratings were visually made. Results for Tests A-G are given in Table A. In the Table, a rating of 100 indicates 100% disease control and a rating of 0 indicates no disease control (relative to the controls). A dash (-) indicates no test results. All results are for 200 ppm except where followed by an “*”, which indicates 40 ppm.

Septoria nodorum = assay: Test D: wheat glume blotch, preventive spray on wheat seedlings; conditions: Parastagonospora nodorum, 216 h, wheat seedlings sprayed to run-off, inoculated next day, rated after 48 h + 7 days, read-out: Percentage Disease Control Test D
From the text: General protocol for preparing test suspensions for Tests A-G: the test compounds were first dissolved in acetone in an amount equal to 11% of the final volume and then suspended at the desired concentration (in ppm) in acetone and purified water (50/50 mix by volume) containing 250 ppm of the surfactant Trem® 014 (polyhydric alcohol esters). The resulting test suspensions were then used in Tests A-G. Spraying a 200 ppm test suspension to the point of run-off on the test plants was the equivalent of a rate of 800 g/ha. The test suspension was sprayed to the point of run-off on wheat seedlings. The following day the seedlings were inoculated with a spore suspension of Septoria nodorum (the causal agent of wheat glume blotch) and incubated in a saturated atmosphere at 20° C. for 48 h, and then moved to a growth chamber at 20° C. for 7 days, after which time disease ratings were visually made. Results for Tests A-G are given in Table A. In the Table, a rating of 100 indicates 100% disease control and a rating of 0 indicates no disease control (relative to the controls). A dash (-) indicates no test results. All results are for 200 ppm except where followed by an “*”, which indicates 40 ppm.

Septoria tritici = assay: Test E: wheat leaf blotch, preventive spray on wheat seedlings; conditions: Zymoseptoria tritici, 456 h, wheat seedlings sprayed to run-off, inoculated next day, rated after 48 h + 19 days, read-out: Percentage Disease Control Test E
From the text: General protocol for preparing test suspensions for Tests A-G: the test compounds were first dissolved in acetone in an amount equal to 11% of the final volume and then suspended at the desired concentration (in ppm) in acetone and purified water (50/50 mix by volume) containing 250 ppm of the surfactant Trem® 014 (polyhydric alcohol esters). The resulting test suspensions were then used in Tests A-G. Spraying a 200 ppm test suspension to the point of run-off on the test plants was the equivalent of a rate of 800 g/ha. The test suspension was sprayed to the point of run-off on wheat seedlings. The following day the seedlings were inoculated with a spore suspension of Septoria tritici (the causal agent of wheat leaf blotch) and incubated in a saturated atmosphere at 24° C. for 48 h, and then moved to a growth chamber at 20° C. for 19 days, after which time disease ratings were visually made. Results for Tests A-G are given in Table A. In the Table, a rating of 100 indicates 100% disease control and a rating of 0 indicates no disease control (relative to the controls). A dash (-) indicates no test results. All results are for 200 ppm except where followed by an “*”, which indicates 40 ppm.

Alternaria solani = assay: Test G: tomato early blight, preventive spray on tomato seedlings; conditions: Alternaria solani, topical, 168 h, tomato seedlings sprayed to run-off, inoculated next day, rated after 48 h + 5 days, read-out: Percentage Disease Control Test G
From the text: General protocol for preparing test suspensions for Tests A-G: the test compounds were first dissolved in acetone in an amount equal to 11% of the final volume and then suspended at the desired concentration (in ppm) in acetone and purified water (50/50 mix by volume) containing 250 ppm of the surfactant Trem® 014 (polyhydric alcohol esters). The resulting test suspensions were then used in Tests A-G. Spraying a 200 ppm test suspension to the point of run-off on the test plants was the equivalent of a rate of 800 g/ha. The test suspension was sprayed to the point of run-off on tomato seedlings. The following day the seedlings were inoculated with a spore suspension of Alternaria solani (the causal agent of tomato early blight) and incubated in a saturated atmosphere at 27° C. for 48 h, and then moved to a growth chamber at 24° C. for 5 days, after which time disease ratings were visually made. Results for Tests A-G are given in Table A. In the Table, a rating of 100 indicates 100% disease control and a rating of 0 indicates no disease control (relative to the controls). A dash (-) indicates no test results. All results are for 200 ppm except where followed by an “*”, which indicates 40 ppm.

| Structure (SMILES) | pest or weed control at 200 ppm [1] [%] | pest or weed control at 200 ppm [2] [%] | pest or weed control at 200 ppm (Septoria nodorum) [%] | pest or weed control at 40 ppm (Septoria tritici; 40 ppm (value followed by *)) [%] | pest or weed control at 200 ppm (Alternaria solani) [%] | pest or weed control at 200 ppm (Septoria tritici) [%] |
| --- | --- | --- | --- | --- | --- | --- |
| CC(=O)NCc1cc(-c2ccn(-c3ccc4c(c3)CCCO4)n2)ccc1Cl [Compound 2, N-[[2-chloro-5-[1-(3,4-dihydro-2H-1-benzopyran-6-yl)-1H-pyrazol-3-yl]-phenyl]methyl]acetamide] | 84 | 100 | 100 | 97 | 53 | – |
| O=CNCc1cc(-c2ccn(-c3ccc4c(c3)CCCO4)n2)ccc1Cl [Compound 3, N-[[2-chloro-5-[1-(3,4-dihydro-2H-1-benzopyran-6-yl)-1H-pyrazol-3-yl]-phenyl]methyl]formamide] | 0 | 97 | 99 | – | 0 | 78 |
| CNC(=O)NCc1cc(-c2ccn(-c3ccc4c(c3)CCCO4)n2)ccc1Cl [Compound 4, N-[[2-chloro-5-[1-(3,4-dihydro-2H-1-benzopyran-6-yl)-1H-pyrazol-3-yl]-phenyl]methyl]-N′-methylurea] | 0 | 97 | 82 | – | 0 | 0 |
| COC(=O)NCc1cc(-n2ccc(-c3ccc4c(c3)CCCO4)n2)ccc1Cl [Compound 5, methyl N-[[2-chloro-5-[3-(3,4-dihydro-2H-1-benzopyran-6-yl)-1H-pyrazol-1-yl]phenyl]methyl]carbamate] | 100 | 100 | 100 | – | 0 | 100 |
| COC(=O)NCc1cc(-n2ccc(-c3ccc4c(c3)OCO4)n2)ccc1Cl [Compound 6, methyl N-[[5-[3-(1,3-benzodioxol-5-yl)-1H-pyrazol-1-yl]-2-chlorophenyl]-methyl]carbamate] | 100 | 100 | 100 | – | 95 | 99 |
| COC(=O)NCc1cc(-n2ccc(-c3ccc4c(c3)OCCO4)n2)ccc1Cl [Compound 7, methyl N-[[2-chloro-5-[3-(2,3-dihydro-1,4-benzodioxin-6-yl)-1H-pyrazol-1-yl]-phenyl]methyl]carbamate] | 100 | 100 | 100 | – | 97 | 100 |
| CC(=O)NCc1cc(-n2ccc(-c3ccc4c(c3)CCCO4)n2)ccc1Cl [Compound 8, N-[[2-chloro-5-[3-(3,4-dihydro-2H-1-benzopyran-6-yl)-1H-pyrazol-1-yl]phenyl]methyl]acetamide] | 0 | 100 | 100 | – | 91 | 98 |
| CNC(=O)NCc1cc(-n2ccc(-c3ccc4c(c3)CCCO4)n2)ccc1Cl [Compound 9, N-[[2-chloro-5-[3-(3,4-dihydro-2H-1-benzopyran-6-yl)-1H-pyrazol-1-yl]phenyl]methyl]-N′-methylurea] | 0 | 88 | 100 | – | 9 | 79 |
| COC(=O)NCc1cc(-n2ccc(-c3ccc4c(c3)CCCO4)n2)ccc1F [Compound 11, methyl N-[[5-[3-(3,4-dihydro-2H-1-benzopyran-6-yl)-1H-pyrazol-1-yl]-2-fluorophenyl]methyl]carbamate] | 100 | 100 | 100 | – | 40 | 100 |
| COC(=O)NCc1cc(-c2ccn(-c3ccc4c(c3)CCCO4)n2)ccc1F [Compound 12, methyl N-[[5-[1-(3,4-dihydro-2H-1-benzopyran-6-yl)-1H-pyrazol-3-yl]-2-fluorophenyl]methyl]carbamate] | 100 | 100 | 100 | – | 88 | 100 |
| COC(=O)NCc1cc(-c2ccn(-c3ccc4c(c3)CCCO4)n2)ccc1C [Compound 20, methyl N-[[5-[1-(3,4-dihydro-2H-1-benzopyran-6-yl)-1H-pyrazol-3-yl]-2-methylphenyl]methyl]carbamate] | 99 | 100 | 100 | – | 90 | 100 |
| COC(=O)NCc1cc(-c2ccn(-c3ccc4c(c3)C=C(C(=O)OC)CO4)n2)ccc1Cl [Compound 23, methyl 6-[3-[4-chloro-3-[[(methoxycarbonyl)amino]methyl]phenyl]-1H-pyrazol-1-yl]-2H-1-benzopyran-3-carboxylate] | 0 | 94 | 73 | – | 0 | 0 |
| COC(=O)NCc1cc(-c2ccn(-c3ccc4c(c3)C=C(C(=O)O)CO4)n2)ccc1Cl [Compound 24, 6-[3-[4-chloro-3-[[(methoxycarbonyl)amino]methyl]phenyl]-1H-pyrazol-1-yl]-2H-1-benzopyran-3-carboxylic acid] | 0 | 96 | 89 | – | 0 | 0 |
